In patent publication US11434221B2, “Pyrazine-4-carbamate or -urea derivatives as herbicides” (Syngenta Participations AG, priority 2017, dated 2022):

Legend:
Format in all cases: in vivo
Set-up in all cases: key: 5=total damage to plant; 0=no damage to plant
[1] = system: Alopecurus myosuroides (ALOMY); assay: Pre-emergence herbicidal activity, glasshouse pot test; settings: Rate 1000 g/ha; sprayed one day after sowing; evaluated after 13 days
Summary of the method: (§1)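 Seeds sown in standard soil in pots, kept one day in glasshouse (24/16 °C day/night, 14 h light, 65% humidity), then sprayed pre-emergence with aqueous solution from acetone/water (50:50) formulation with 0.5% Tween 20. Grown under same conditions, watered twice daily; damage scored after 13 days (0 = none, 5 = total).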

Avena fatua (AVEFA) [2] = assay: as above; settings: Rate 1000 g/ha; sprayed one day after sowing; evaluated after 13 days
Summary of the method: as §1

[3] = system: Echinochloa crus-galli (ECHCG); assay: as above; settings: Rate 1000 g/ha; sprayed one day after sowing; evaluated after 13 days
Summary of the method: as §1

Lolium perenne (LOLPE) [4] = assay: as above; settings: Rate 1000 g/ha; sprayed one day after sowing; evaluated after 13 days
Summary of the method: as §1

Setaria faberi (SETFA) [5] = assay: as above; settings: Rate 1000 g/ha; sprayed one day after sowing; evaluated after 13 days
Summary of the method: as §1

[6] = system: Triticum aestivium (TRZAW); assay: as above; settings: Rate 1000 g/ha; sprayed one day after sowing; evaluated after 13 days
Summary of the method: as §1

[7] = system: Alopecurus myosuroides (ALOMY); assay: Post-emergence herbicidal activity, glasshouse pot test; settings: Rate 1000 g/ha; sprayed after 8 days cultivation; evaluated after 13 days
Summary of the method: (§2)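 Post-emergence spray, 8-day-old pot-grown plants; vehicle acetone/water 50:50 + 0.5% Tween 20. Glasshouse 24/16° C day/night, 14 h light, 65% RH, watered 2×/day. Visual damage rated day 13, 0–5.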

Avena fatua (AVEFA) [8] = assay: as above; settings: Rate 1000 g/ha; sprayed after 8 days cultivation; evaluated after 13 days
Summary of the method: as §2

[9] = system: Echinochloa crus-galli (ECHCG); assay: as above; settings: Rate 1000 g/ha; sprayed after 8 days cultivation; evaluated after 13 days
Summary of the method: as §2

Lolium perenne (LOLPE) [10] = assay: as above; settings: Rate 1000 g/ha; sprayed after 8 days cultivation; evaluated after 13 days
Summary of the method: as §2

Setaria faberi (SETFA) [11] = assay: as above; settings: Rate 1000 g/ha; sprayed after 8 days cultivation; evaluated after 13 days
Summary of the method: as §2

[12] = system: Triticum aestivium (TRZAW); assay: as above; settings: Rate 1000 g/ha; sprayed after 8 days cultivation; evaluated after 13 days
Summary of the method: as §2

Compound	Control of weed species after pre-emergence application, ALOMY (damage score 0-5) [1]	Control of weed species after pre-emergence application, AVEFA (damage score 0-5) (Avena fatua (AVEFA) [2])	Control of weed species after pre-emergence application, ECHCG (damage score 0-5) [3]	Control of weed species after pre-emergence application, LOLPE (damage score 0-5) (Lolium perenne (LOLPE) [4])	Control of weed species after pre-emergence application, SETFA (damage score 0-5) (Setaria faberi (SETFA) [5])	Control of weed species after pre-emergence application, TRAZW (damage score 0-5) [6]	Control of weed species after post-emergence application, ALOMY (damage score 0-5) [7]	Control of weed species after post-emergence application, AVEFA (damage score 0-5) (Avena fatua (AVEFA) [8])	Control of weed species after post-emergence application, ECHCG (damage score 0-5) [9]	Control of weed species after post-emergence application, LOLPE (damage score 0-5) (Lolium perenne (LOLPE) [10])	Control of weed species after post-emergence application, SETFA (damage score 0-5) (Setaria faberi (SETFA) [11])	Control of weed species after post-emergence application, TRAZW (damage score 0-5) [12]
C=C(C)c1nc(-c2cncc(F)c2)cnc1N(C(=O)OC(C)(C)C)C(=O)OC(C)(C)C [Compound H11]	1	0	3	2	4	0	0	2	3	2	5	0
CC(C)(C)OC(=O)Nc1ncc(-c2cncnc2)nc1C(F)F [Compound H30]	0	0	3	1	4	1	1	3	4	2	4	1
Cc1nc(-c2cncnc2)cnc1NC(=O)OC(C)(C)C [Compound H23]	0	1	2	0	4	0	1	3	4	2	5	1
C=Cc1nc(-c2cncc(F)c2)cnc1N(C(=O)OC(C)(C)C)C(=O)OC(C)(C)C [Compound H20]	0	2	2	1	4	1	0	2	4	3	5	1
CC(C)(C)OC(=O)N(C(=O)OC(C)(C)C)c1ncc(-c2cncnc2)nc1C(F)(F)F [Compound H1]	0	2	4	1	4	0	0	4	5	3	5	0
